Measurements: patent publication EP4806904A1, “POLYPEPTIDE AND USE THEREOF” (Sichuan Gooddoctor Panxi Pharmaceutical Co. Ltd, priority 2023, dated 2026)
Where a SMILES comes first, the peptide text is derived from it. Where no end group is shown, it is not given here. [ ]: non-standard residue; d: D form.

Assays:
[1] = system: neural stem cell line C17.2; assay: Proliferation of neural stem cell line C17.2, BrdU, high-content imaging; assay type: cell-based; details: 100 µg/mL, 48 h; for Proliferation-promoting results: percentage of BrdU-positive cells, significance vs blank control group; for number of BrdU positive cells: vs blank control group, in words
Description: • (1) C17.2 cells were seeded in 96-well plates at a concentration of 1500 cells/100 µL/well. After overnight culture for cell adherence, the cells were treated with drugs; • (2) Drug treatment was applied. The final concentration of the polypeptide of the invention was 100 µg/mL. Meanwhile, butylphthalide (NBP, 5 µM) was set as the positive control. The cells were cultured in the incubator for another 48 h; • (3) BrdU was added at 44 h of treatment to a final concentration of 10 µM. Immunofluorescence staining was performed 4 h later, and the percentage of BrdU-positive cells was statistically analyzed using a high-content cell imaging analysis system.

[2] = system: primary neural stem cells (NSCs); assay: Differentiation of primary neural stem cells, βIII-tubulin fluorescence and Neurite Outgrowth Assay; assay type: cell-based, SD rats; details: 100 µg/mL, 4 days; for mean fluorescence intensity of the neuronal marker protein βIII-tubulin: vs blank control group; for mean fluorescence intensity of the neuronal marker protein βIII-tubulin / neurite outgrowth (total neurite length, maximum neurite length, neurite terminals, neurite initiation points): in words; for neurite outgrowth (total neurite length, maximum neurite length, neurite terminals, neurite initiation points): Neurite Outgrowth Assay
Description: This part of the experiment requires feeding male and female rats in advance, then extracting hippocampal neural stem cells from newborn SD rats within 24 h of birth, culturing them to P3 for identification, and then using them for experiments. • (1) Extraction and culture of primary neural stem cells (NSCs) • (2) NSCs that have been passaged to P3 and have good viability were seeded in differentiation medium (2% FBS+DMEM/F12 1:1 medium) in 48-well plates with a cell concentration of 5×10^4 cells/mL per well. After overnight culture for cell adherence, the cells were treated with drugs; • (3) Drug treatment was applied. The final concentration of the polypeptide of the invention was 100 µg/mL. Meanwhile, nerve growth factor (NGF, 50 ng/mL) was set as the positive control, and the cells were cultured in the incubator for another 4 days; • (4) Immunofluorescence staining (primary antibody βIII-tubulin) was performed after 4 days of treatment. The average fluorescence intensity of βIII-tubulin was analyzed and the Neurite Outgrowth Assay was performed using a high-content cell imaging analysis system.

[3] = system: Brain microvascular endothelial cells (BMECs) and brain microvascular smooth muscle cells (BMVSMCs); assay: In vitro angiogenesis assay, BMEC/BMVSMC co-culture on matrigel; assay type: cell-based, mouse; details: 0.1 mg/L, 48 h
Description: First, mouse brain microvascular pellets were obtained by differential centrifugation. Brain microvascular endothelial cells (BMECs) and brain microvascular smooth muscle cells (BMVSMCs) were isolated by digestion with collagenase II, respectively, and cultured in a cell incubator with 5% CO2 at 37°C . Cells at passages 3-6 in good growth condition and logarithmic growth phase were selected for the in vitro angiogenesis assay.
One night before the experiment, the high-concentration matrigel was transferred from a -20°C or -80°C refrigerator to a 4°C refrigerator and allowed to thaw slowly overnight in the 4°C refrigerator. Pipette tips required for the formal experiment were sterilized in advance and pre-cooled in a 4°C refrigerator for subsequent use.
On the day of the experiment, the matrigel was added to a 96-well plate 1 h in advance and placed in a 37°C cell incubator until it solidified. Subsequently, the cells were washed 2 times with 2 mL of PBS buffer, followed by digestion with 0.25% trypsin to obtain EC and VSMC pellets, respectively, and cell counting was performed. A uniform cell suspension containing 5×10^3 BMVSMCs and 1×10^3 BMECs per well was then seeded into the 96-well plate pre-coated with the matrigel, and cultured in a 37°C, 5% CO2 cell incubator for 3 days.
During the culture period, tube formation was observed daily. The medium was changed on day 4, followed by treatment with the polypeptide of the invention at 0.1 mg/L or VEGFA at 10/15/20 ng/L for 48 h, respectively.
On day 5, the cell nuclei and live cells were labeled with Hoechst 33342 and Calcein AM, respectively. High-content brightfield and fluorescence imaging were then performed using a high-content screening system. Finally, angiogenesis in each treatment group was analyzed using the Angiogenesis Analyzer plugin for ImageJ, and statistical analysis was carried out with GraphPad Prism 10.

[4] = significance vs blank control group

Compound	Proliferation-promoting results [1]	mean fluorescence intensity of the neuronal marker protein βIII-tubulin [2]	Cell count [3, 4]	cell proliferation ([3]; vs normal group, in words)	Longest neurite length [2, 4]	Neurite initiation points (branches) [2, 4]	Number of neurite terminals [2, 4]	Total neurite length [2, 4]	Number of intersections [3, 4]	Branch length ([3]; vs normal group, in words)	number of junctions ([3]; vs normal group, in words)	number of BrdU positive cells [1]	Average fluorescence intensity ([2]; βIII-tubulin, significance vs blank control group)	neurite outgrowth (total neurite length, maximum neurite length, neurite terminals, neurite initiation points) [2]	Branch length [3, 4]
H-ALPAAGTL-OH [Compound 17, H-Ala-Leu-Pro-Ala-Ala-Gly-Thr-Leu-OH]	** (**p < 0.01)	tendency to enhance	** (**p < 0.01)	only promoted cell proliferation											
CC(C)C[C@H](NC(=O)[C@@H](NC(=O)CNC(=O)[C@@H]1CCCN1C(=O)[C@@H](C)NC(=O)[C@@H]1CCCN1C(=O)[C@H](CC(C)C)NC(=O)[C@H](C)N)[C@@H](C)O)C(=O)O [Compound 5, H-Ala-Leu-Pro-D-Ala-Pro-Gly-Thr-Leu-OH] (H-ALP[dA]PGTL-OH)	** (**p < 0.01)		* (*p < 0.05)		*** (***p < 0.001)	*** (***p < 0.001)	* (*p < 0.05)	** (**p < 0.01)	* (*p < 0.05)	no significant effects	promoting effects				
ALPAPG [Compound 40, H-Ala-Leu-Pro-Ala-Pro-Gly-Oh]	* (*p < 0.05)	significant increase	* (*p < 0.05)	only promoted cell proliferation								significant increase	* (*p < 0.05)		
H-ALPAGGTL-OH [Compound 15, H-Ala-Leu-Pro-Ala-Gly-Gly-Thr-Leu-OH]	* (*p < 0.05)				* (*p < 0.05)				* (*p < 0.05)	no significant effects	promoting effects			tendency to promote neurite outgrowth	
C[C@H](NC(=O)[C@@H]1CCCN1)C(=O)N1CCC[C@H]1C(=O)NCC(=O)O [Compound 36, H-Pro-Ala-Pro-Gly-OH] (H-PAPG-OH)	** (**p < 0.01)		** (**p < 0.01)				* (*p < 0.05)	* (*p < 0.05)		promoting effects	no significant effects	significant increase		tendency to promote neurite outgrowth	** (**p < 0.01)
